Key:
mu opioid receptor [1] = molecular target: mu opioid receptor (Homo sapiens, UniProt P35372); conditions: cited from earlier work
[2] = system: peripheral opioid receptors; experiment: peripherally selective activity (internal results); assay type: in vivo
Source text: The invention embodies usage of any of these compounds or derivatives or metabolites thereof. […] In combinations, any opioid analgesic is a feasible component, embodied in the combination patents mentioned above. An example is a combination product of oxycodone or hydrocodone with 6beta-naltrexol.

oral bioavailability = assay type: in vivo; conditions: value assumed for oral dosing
Experimental: This step applies to opioid use disorders. […] The recommended initial dose is 2 mg naltrexol orally (assuming ˜30% oral bioavailability; estimated dosage range 0.5-10 mg), once or twice daily for 2-4 days, followed by 6 mg once or twice daily for 4-8 days (estimated dosage range 2-20 mg twice daily). Step 1 is designed to suppress peripheral effects of the opioid drug with minimal peripheral withdrawal symptoms, and reverse at least partially opioid dependence.
Opioid antagonist maintenance with 6-beta-naltrexol may require 100 mg (dosage range 40-300 mg) per day orally (assuming 20-40% bioavailability). […] Ceasing opioid use altogether must be medically supervised for at least one year to determine the rate of recidivism.

mu opioid receptor [3] = molecular target: T1, mu opioid receptor (Mus musculus, UniProt P42866); experiment: internal unpublished: co-administration with morphine or methadone, subsequent opioid withdrawal, mice; assay type: in vivo; conditions: dose as low as 0.01 mg/kg given together with morphine or methadone
T1 construct: from tissue; host or cells: living mice (whole-animal pharmacology)
Source text: (§1) (See Corder G, Doolen S, Donahue R R, Winter M, Jutras B, He Y, Hu X, Wieskopf J S, Mogil J S, Storm D R, Wang Z J, McCarson K E, and Taylor B K, Constitutive μ-opioid receptor activity leads to long-term endogenous analgesia and dependence. Science 2013; 341,1394-1399; Corder G, Tawfik V L, Wang D, Sypek E I, Low S A, Dickinson J R, Sotoudeh C, Clark J D, Barres B A, Bohlen C J, Scherrer (2017). Loss of μ opioid receptor signaling in nociceptors, but not microglia, abrogates morphine tolerance without disrupting analgesia. Nat Med. 23:164-173; J. Oberdick, Y. L., M. A. Phelps, M. S. Yudovich, K. Schilling, and W. Sadee. Preferential delivery of an opioid antagonist to the fetal brain in pregnant mice. J. Pharmacol. Exp. Ther. 358: 22-30 (2016).

mu opioid receptor [4] = experiment: internal unpublished: co-administration with morphine or methadone, subsequent opioid withdrawal, guinea pigs; assay type: in vivo; conditions: dose as low as 0.01 mg/kg given together with morphine or methadone
Source text: as §1

[5] = system: rats habituated to high alcohol consumption; conditions: acute; cited from earlier work
[6] = in vivo; cited from earlier work
[7] = system: peripheral and central opioid receptors; conditions: methadone maintenance subjects, single intravenous dose 0.5-1 mg; cited from earlier work
opioid receptors = conditions: acutely morphine-dependent mice; cited from earlier work
[8] = system: peripheral and central opioid receptors; experiment: intravenous 6beta-naltrexol in methadone maintenance subjects
[9] = molecular target: peripheral and central opioid receptors; experiment: blocking morphine iv effects (analgesia, slowing of bowel movement) in opioid naive subjects; assay type: in vivo, humans
Experimental: Recommended doses are 20 mg (range 10-80 mg) once or twice daily for 4-8 days, then 40 mg (range 20-120 mg) once or twice daily for 1-4 weeks, and if necessary, further escalation to 100 mg (range 40-300 mg) once or twice daily for maintenance. […] Dosing schedules can be facilitated by designing sustained release formulations as described in preceding incorporated patents.

mu opioid receptor [10] = molecular target: T1, mu opioid receptor; conditions: 0.02 mg/kg co-injected s.c. with 20 mg/kg morphine for several days, juvenile mice; cited from earlier work
[11] = system: spontaneous opioid receptor activity; conditions: opioid dependent mice, 24 hours after the last morphine dose; cited from earlier work
[12] = system: peripheral and central opioid receptors; conditions: mice, given orally; cited from earlier work
[13] = 4 methadone replacement patients, IV doses up to 1 mg

T1 sequence (P42866 whole entry): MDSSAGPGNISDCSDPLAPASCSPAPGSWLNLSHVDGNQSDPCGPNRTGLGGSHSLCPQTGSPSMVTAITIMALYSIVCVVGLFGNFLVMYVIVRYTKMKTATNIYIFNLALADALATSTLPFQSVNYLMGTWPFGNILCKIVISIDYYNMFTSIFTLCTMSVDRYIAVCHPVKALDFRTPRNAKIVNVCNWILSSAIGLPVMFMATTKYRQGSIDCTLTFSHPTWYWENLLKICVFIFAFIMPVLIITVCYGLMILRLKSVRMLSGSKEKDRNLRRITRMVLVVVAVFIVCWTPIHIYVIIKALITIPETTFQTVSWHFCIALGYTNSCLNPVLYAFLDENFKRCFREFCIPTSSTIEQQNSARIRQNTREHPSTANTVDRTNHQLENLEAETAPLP
Sequence of mu opioid receptor (Homo sapiens, UniProt P35372) (P35372 whole entry, species assumed): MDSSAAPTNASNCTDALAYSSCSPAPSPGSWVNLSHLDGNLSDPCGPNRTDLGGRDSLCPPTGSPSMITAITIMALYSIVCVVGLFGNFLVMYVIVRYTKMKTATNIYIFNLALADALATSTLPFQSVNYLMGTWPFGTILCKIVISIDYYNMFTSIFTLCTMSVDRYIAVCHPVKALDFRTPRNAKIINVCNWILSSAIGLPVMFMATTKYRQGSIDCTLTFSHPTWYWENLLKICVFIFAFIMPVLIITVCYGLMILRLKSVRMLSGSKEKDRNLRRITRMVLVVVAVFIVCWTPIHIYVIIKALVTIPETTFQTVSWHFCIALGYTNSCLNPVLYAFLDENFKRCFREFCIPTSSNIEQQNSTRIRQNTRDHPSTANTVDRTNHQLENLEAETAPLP

CC(=O)N[C@@H]1CC[C@@]2(O)[C@H]3Cc4ccc(O)c5c4[C@@]2(CCN3CC2CC2)[C@@H]1O5 [6beta-naltrexamide]
type of opioid antagonism (mu opioid receptor [1]): neutral antagonism | peripherally selective activity [2]: strong peripherally selective activity

Oc1ccc2c3c1O[C@H]1[C@H](O)CC[C@@]4(O)[C@@H](C2)N(CC2CC2)CC[C@]314 [6beta-naltrexol]
oral bioavailability (oral bioavailability; listed as 6-beta-naltrexol): 20-40% | oral bioavailability (oral bioavailability; listed as naltrexol): ~30% | subsequent opioid withdrawal (mu opioid receptor [3]): reduces or prevents subsequent opioid withdrawal | subsequent opioid withdrawal (mu opioid receptor [4]): reduces or prevents subsequent opioid withdrawal | alcohol and sucrose intake [5]: prevents both alcohol and sucrose intake acutely, but only at high doses | half-life compared with typical opioid analgesics [6]: longer half-life | central withdrawal symptoms [7]: no central withdrawal symptoms | effect on opioid induced constipation [7]: can reverse opioid induced constipation | effect on naloxone induced withdrawal jumping (opioid receptors): prevent naloxone (inverse agonist) induced withdrawal jumping | tolerated IV dose ([8]; 4 methadone replacement patients sensitive to 0.05 mg naloxone i.v.): up to 1 mg | bowel effect [8, 13]: bowel movements | withdrawal symptoms [8, 13]: some additional peripheral, but no central, withdrawal symptoms | IC50 for blocking morphine induced slowing of bowel movement ([9]; iv): ~3 mg | block of analgesia caused by 10 mg morphine iv ([9]; single dose of 20 mg iv, opioid naive subjects): failed to block analgesia | naloxone-withdrawal jumping after co-injection with morphine (mu opioid receptor [10]): significantly reduced

O=C1CC[C@@]2(O)[C@H]3Cc4ccc(O)c5c4[C@@]2(CCN3CC2CC2)[C@H]1O5 [naltrexone]
withdrawal elicited by the antagonist [11]: robust withdrawal | potency in blocking peripheral and central opioid analgesic effects [12]: equally potent

Reference: patent publication US12582646B2, “Method for treating drug or alcohol dependency” (AETHER THERAPEUTICS INC., priority 2019, dated 2026)
